How the values were obtained:
[1] = Evaluation of solubility of acids in glycerol (visual); type: physicochemical; conditions: for Solubility (-): 10 mg of acid in 1,000 mg of glycerol at 25°C, visual, 5 grades
Protocol: The organic acid is preferably soluble in the aerosol former at 25°C. […] When the resulting solution is colorless and transparent or the majority of the organic acid added is invisible due to dissolution, the organic acid is determined as "soluble." Since a solution of a polyol, such as glycerol, is difficult to measure at room temperature due to the high viscosity, it is desirable to observe the solution after appropriately dissolving once at a high temperature, followed by cooling to room temperature.
The evaluation was made by 5 grades from 1 of "no dissolution" to 5 of "complete dissolution." Herein, a grade of 3 or higher was regarded as "soluble."

[2] = First acid dissociation constant of the added acid; type: physicochemical; conditions: in water at 25°C
Protocol: The organic acid preferably has a first acid dissociation constant of preferably 4.0 to 5.0, more preferably 4.1 to 4.8, and further preferably 4.2 to 4.5. […] In the present invention, the term "first acid dissociation constant" indicates an acid dissociation constant in water at 25°C and is a value measured, for example, by acid-base titration, absorption spectroscopy, or capillary electrophoresis.

| SMILES | Solubility (-) [1] | First acid dissociation constant (-) [2] | Solubility in glycerol as an aerosol former (in words) ([1]; 25°C) |
| --- | --- | --- | --- |
| CCCCCCCCCCCCCCCCCCC(=O)O [Nonadecanoic acid] | 1 | 5.10 |  |
| O=C(O)CCCCC(=O)O [Adipic acid] |  | 4.42 |  |
| CC(=O)CCC(=O)O [Levulinic acid] | 5 | 4.44 | soluble |
| CC(=O)C(=O)O [Pyruvic acid] | 5 | 2.50 |  |

Reference: EP3949771B1, “HEAT-NOT-BURN SMOKING ARTICLE, METHOD FOR USING SAME, AND HEAT-NOT-BURN SMOKING SYSTEM” (Japan Tobacco Inc., priority 2019, dated 2020)
